Measured values published in US9394544B2, “Ameliorating oxidative stress in neurodegenerative disease via Nox1 targeting” (University of Central Florida Research Foundation, Inc., priority 2013, dated 2016).
Like-named read-outs stand apart in the source and are kept apart here.

Key:
Nox1 [1] = test: Nox1 expression (RT-PCR, immunoblot) in N27 cells exposed to toxins; type: cell-based, rat
From the text: The NADPH oxidase is a multi-subunit enzyme that consists of the catalytic subunits (Nox isoforms) together with the regulatory subunits including p22phox, p47phox, p40phox, p67phox, Nox organizer 1 (Noxo1), Nox activator 1 (Noxa1), and small GTPase Rac1. In order to test whether dopaminergic (DA) cells are equipped with the NOX components, N27, a well-established rat DA cell line was examined (Prasad et al. 1994). The mRNAs encoding each Nox isoform and regulatory subunits were detected using RT-PCR. Since transcriptional induction of Nox1 and Nox4 has already been reported in several tissues under a variety of stimuli, transcripts were determined in both nontreated and 6-hydroxydopamine (6-OHDA), a DA neurodegenerative compound, treated DA cells. ROS generation as induced by 6-OHDA (100 μM) and subsequent cell death was observed. All Nox isoforms (Nox1, Nox2, Nox4, Duox1 and Duox2) except Nox3 and Nox5 were detected (FIG. 1A). […] Mitochondria, which have long been considered as a major source of ROS, play a key role in Nox1-mediated superoxide generation (Desouki et al. 2005). […] Cytoplasmic regulatory subunits including p47phox, Noxa1, and Noxo1 were constitutively expressed in DA cells as well (FIG. 1A). Noxa1 and Noxo1 are homologues of p67phox and p47phox, respectively. They are involved in Nox1-mediated superoxide generation (Banfi et al. 2003, Geiszt et al. 2003). […] The activation of a small GTPase Rac1 is indispensable for Nox1 and Nox2 activation (Bokoch 2002). GTP-bound active Rac1 was measured in DA cells treated with 6-OHDA for various duration from 1 h to 6 h.
Total RNA was extracted from N27 cells using Trizol reagent (Invitrogen, Carlsbad, Calif.). Reverse transcription was performed for 1 h at 42° C. with 1 μg of total RNA using 20 unit/μl of AMV reverse transcriptase (Roche Applied Science, Indianapolis, Ind.), and oligo-p(dT)15 as a primer. The samples were then heated at 99° C. for 5 min to terminate the reaction. The cDNA obtained from 1 μg total RNA was used as a template for PCR amplification. Oligonucleotide primers were designed based on Genebank entries for rat NOX1 (sense, 5′-[…]-3′ SEQ ID NO. 1; antisense, 5′-[…]-3′ SEQ ID NO. 2), rat NOX2 (sense, 5′-[…]-3′ SEQ ID NO. 3; antisense, 5′-[…]-3′ SEQ ID NO. 4), rat NOX4 (sense, 5′-[…]-3′ SEQ ID NO. 5; antisense, 5′-[…]-3′ SEQ ID NO. 6), rat NOXA1 (sense, 5′-[…]-3′ SEQ ID NO. 7; antisense, 5′-[…]-3′ SEQ ID NO. 8), rat NOXO1 (sense, 5′-[…]-3′ SEQ ID NO. 9; antisense, 5′-[…]-3′ SEQ ID NO. 10), rat p47 (sense, 5′-[…]-3′ SEQ ID NO 11; antisense, 5′-[…]-3′ SEQ ID NO. 12), rat Duox1 (sense, 5′-[…]-3′ SEQ ID NO. 13; antisense, 5′-[…]-3′SEQ ID NO. 14), rat Duox2 (sense, 5′-[…]-3′ SEQ ID NO. 15; antisense, 5′-[…]-3′ SEQ ID NO. 16) and rat GAPDH (sense, 5′-[…]-3′ SEQ ID NO. 17; antisense, 5′-[…]-3′ SEQ ID NO. 18). PCR mixes contained 10 μl of 2×PCR buffer, 1.25 mM of each dNTP, 10 pmol of each forward and reverse primer, and 2.5 units of Taq polymerase in the final volume of 20 μl. Amplification was performed in 35 cycles at 60° C., 30 sec; 72° C., 1 min; 94° C., 30 sec. After the last cycle, all samples were incubated for an additional 10 min at 72° C. for final extension step. PCR fragments were analyzed on 1.2% agarose gel in 0.5×TAE containing ethidium bromide. Amplification of GAPDH, a relatively invariant internal reference RNA, was performed in parallel, and cDNA amounts were normalized against GAPDH mRNA levels. The primer set specifically recognized only the gene of interest as indicated by amplification of a single band of expected size. […]

N27 cells = test: NBT assay of 6-OHDA-mediated ROS generation in N27 dopaminergic cells; type: cell-based, rat; details: 6 h; for 6-OHDA-mediated ROS generation (NBT assay): inhibitor pre-treatment 30 min (DPI 0.1, 0.5, 1.0 μM; apocynin 0.1, 1.0, 10, 100 μM), then 6-OHDA 100 μM
Method: N27 cells were pre-treated with various concentrations of DPI (0.1, 0.5, and 1.0 μM) for 30 min and then 6-OHDA (100 μM) was added. Superoxide was measured using the nitroblue tetrazolium (NBT) assay at 6 h post 6-OHDA.
Cells were grown in RPMI 1640 containing 10% FBS, 100 IU/1 penicillin, and 10 g/ml streptomycin at 37° C. with 5% CO2 supply in humidified atmosphere. For experiments, the cells were plated on polystyrene tissue culture dishes at a density of 2×10^4 cells/well in 96-well culture plates, 1×10^6 cells/well in 24-well culture plates, 1×10^6 cells/well in 6-well culture plates, or 2×10^6 cells/100 mm plate. After 24 h, the cells were fed with fresh medium and treated with 6-OHDA and/or other drugs.
6-OHDA treated cells were incubated for 1 h at 37° C. with a filtered solution of 0.3 mg/ml of NBT in complete medium. The cells were washed once with PBS and fixed with 0.4% paraformaldehyde for light microscopy. To quantify NBT precipitation, cells were washed twice with 70% methanol and fixed for 5 min in 100% methanol. After the wells were allowed to dry in the air, the formazan is solubilized with 120 μl 2M K OH and 140 μl DMSO. The OD was read in an ELISA plate reader at 590 nm.

Nox1 [2] = test: Nuclear localization of Nox1-EGFP in N27 cells (confocal microscopy); type: cell-based, rat; details: N27 cells expressing Nox1-EGFP; 6-OHDA 50 μM 6 h, rotenone 5 μM 18 h
From the text: The observation that Nox1 was induced by a variety of oxidative stimuli in vitro led one to test Nox1 expression in the rat substantia nigra DA (SNDA) neurons administered with 6-OHDA. […] Neither astrocytes nor microglia expressed Nox1, as verified by co-immunostaining of Nox1 with GFAP (astrocytes) or CD11b (microglia) (FIG. 3B). Increased Nox1 transcript was found in the SN as shown by in situ hybridization (FIG. 3C). […] As early as 3 days post 6-OHDA injection, Nox1 expression was increased in the nucleus and in the cytoplasm of DA neurons (FIG. 4A). […] Nuclear expression of the Nox1/Rac1 complex was further analyzed in N27 cells after treatment with 6-OHDA. First, activated Rac1 was detected by immunoprecipitation of nuclear extracts of N27 cells after a 24 h treatment with 6-OHDA. […] Next, it was established that N27 cells stably expressing Nox1 tagged with EGFP at the C-terminus. […] To examine whether nuclear translocation of Nox1 in dopaminergic cells is observed under different conditions that cause dopaminergic neuronal death, mitochondrial respiratory complex inhibitor, rotenone, was tested.

Nox1 [3] = test: Nox1 expression in SNDA neurons of MPTP-treated mice; type: in vivo

N#CC(C#N)=NNc1ccc(OC(F)(F)F)cc1 [FCCP]
mRNA and protein levels of Nox1 (Nox1 [1]): elevated

antimycin A
mRNA and protein levels of Nox1 (Nox1 [1]; N27 cells): elevated

CC(C)(C)c1ccc(CSc2cnn(C(C)(C)C)c(=O)c2Cl)cc1 [pyridaben]
mRNA and protein levels of Nox1 (Nox1 [1]; N27 cells): elevated

c1ccc2c(c1)[I+]c1ccccc1-2 [DPI, diphenyleneiodonium]
lowest concentration significantly reducing 6-OHDA-mediated ROS generation (N27 cells; 30 min pre-treatment, 6-OHDA 100 μM): 0.1 µM | 6-OHDA-mediated ROS generation (NBT assay) (N27 cells): significantly reduced

C=C(C)[C@H]1Cc2c(ccc3c2O[C@@H]2COc4cc(OC)c(OC)cc4[C@@H]2C3=O)O1 [rotenone]
mRNA and protein levels of Nox1 (Nox1 [1]; N27 cells): elevated | nuclear localization of Nox1 (Nox1 [2]): led to nuclear localization of Nox1

CN1CC=C(c2ccccc2)CC1 [MPTP, 1-methyl-4-phenyl-1,2,3,6-tetrahydropyridine]
Nox1 expression in the SNDA neurons (Nox1 [3]): Increased Nox1 expression

COc1cc(C(C)=O)ccc1O [apocynin]
6-OHDA-mediated ROS generation (NBT assay) (N27 cells): significantly diminished

OO [H2O2]
mRNA and protein levels of Nox1 (Nox1 [1]; N27 cells): increase
